From patent US9360484B2, “Anti-FcRH5 antibodies and immunoconjugates and methods of use” (Genentech, Inc., priority 2009, dated 2016)

Legend:
[1] = test system: OPM2-FcRH5 tumors (OPM2 multiple myeloma cells stably transfected with human FcRH5); test: OPM2-FcRH5 xenograft: Hu anti-FcRH5 10A8-MC-vc-PAB-MMAE in combination with Revlimid and Revlimid plus Dexamethasone; format: in vivo, CB17 ICR SCID mice; details: for CR (mice with Complete Remission: tumor volume dropped to 0 mm^3) / PR (mice with Partial Regression: tumor volume dropped below 50% of day 0) / TI (number of observable tumors at end of study): 38 day time course, ADC 6 mg/kg single IV day 0, Revlimid 50 mg/kg IP daily, Dexamethasone 3 mg/kg PO; for percent body weight change (FIG. 44): first 17 days
From the text: (§1) Specifically, the ability of the antibody in combination with Revlimid® and Revlimid® plus Dexamethasone to regress tumors in OPM2 cells (Multiple myeloma cell line) stably transfected with human FcRH5 was examined. After transfection of linearized pRK.CMV.PD.nbe.FcRH5 into OPM2 cells and puromycin (Calbiochem, San Diego, Calif.) selection, surviving cells were separated for FcRH5 expressing cells with biotin (Pierce Biotechnology, Rockford, Il) labeled anti-FcRH5.7D11 and MACS anti-Biotin microbeads on an MACS LS column (Miltenyi Biotec, Auburn, Calif.).
For analysis of efficacy of Hu anti-FcRH5 10A8 conjugated to -MC-vc-PAB-MMAE in combination with Revlimid® and Revlimid® plus Dexamethasone, female CB17 ICR SCID mice (6-8 weeks of age from Charles Rivers Laboratories; Hollister, Calif.) were inoculated subcutaneously with 2×10^7 OPM2-FcRH5 cells via injection into the flanks of CB17 ICR SCID mice and the xenograft tumors were allowed to grow to an average of 446 mm^3. Day 0 refers to the day the tumors were 263-630 mm^3 and when the first/or only dose of treatment was administered, unless indicated specifically below. Tumor volume was calculated based on two dimensions, measured using calipers, and was expressed in mm3 according to the formula: V=0.5a×b^2, where a and b are the long and the short diameters of the tumor, respectively. Data collected from each experimental group were expressed as mean+SE. Mice were randomized into nine groups of 8 mice each and dosed. Group 1 received daily intraperitoneal (IP) injections of a mixture of DMSO and MCT buffer on Days 0-13 as a vehicle control. […] Group 4 received daily IP injections of 50 mg/kg Revlimid® on Days 0-13. Group 5 received daily oral (PO) dosing of 3 mg/kg Dexamethasone for four days followed by three days off for two cycles on Days 0-3 and 7-10. Group 6 received daily IP injections of 50 mg/kg Revlimid® on Days 0-13 plus daily PO dosing of 3 mg/kg Dexamethasone for four days followed by three days off for two cycles on Days 0-3 and 7-10. […] Tumors were measured twice a week throughout the experiment. Body weights of mice were measured twice a week throughout the experiment. If mice experienced a body weight loss of greater than 15% compared to their body weight on Day 0, mice were weighed daily until weight regained or until body weight loss reached greater than 20%. […] All animal protocols were approved by an Institutional Animal Care and Use Committee (IACUC).

[2] = test system: OPM2-FcRH5 tumors (OPM2 multiple myeloma cells stably transfected with human FcRH5); test: OPM2-FcRH5 xenograft: Hu anti-FcRH5 10A8-SPDB-DM4 alone and in combination with Velcade; format: in vivo, CB17 ICR SCID mice
From the text: Specifically, the ability of the antibody and Velcade® to regress tumors in OPM2 cells (Multiple myeloma cell line) stably transfected with human FcRH5 was examined. After transfection of linearized […]5 into OPM2 cells and puromycin (Calbiochem, San Diego, Calif.) selection, surviving cells were separated for FcRH5 expressing cells with biotin (Pierce Biotechnology, Rockford, Il) labeled anti-FcRH5.7D11 and MACS anti-Biotin microbeads on an MACS LS column (Miltenyi Biotec, Auburn, Calif.). […] Data collected from each experimental group were expressed as mean±SE. Mice were randomized into six groups of 9 mice each and dosed. […] Group 2 received a single IV injection of histidine buffer on Day 0 plus IV injections of 0.9% sodium chloride (saline) twice weekly for two weeks on Days 0, 3, 7, and 10 as a vehicle control. […] Tumors were measured twice a week throughout the experiment. Body weights of mice were measured twice a week for the first three weeks. […] All animal protocols were approved by an Institutional Animal Care and Use Committee (IACUC).

[3] = test system: OPM2-FcRH5 tumors; test: Inhibition of in vivo tumor growth, OPM2-FcRH5 xenografts, hu10A8-MC-vc-PAB-MMAE alone and in combination with Velcade (Example 8, Table 14); parameters: species or system CB17 ICR SCID mice
From the text: as §1, with “antibody” for “antibody in combination with Revlimid®”, “Velcade®” for “Revlimid® plus Dexamethasone”
For analysis of efficacy of hu anti-FcRH5 10A8 conjugated with MC-vc-PAB-MMAE alone and in combination with Velcade®, female CB17 ICR SCID mice (6-8 weeks of age from Charles Rivers Laboratories; Hollister, Calif.) were inoculated subcutaneously with 2×10^7 OPM2-FcRH5 cells via injection into the flanks of CB17 ICR SCID mice and the xenograft tumors were allowed to grow to an average of 331 mm^3. Day 0 refers to the day the tumors were 172-511 mm^3 and when the first/or only dose of treatment was administered, unless indicated specifically below. Tumor volume was calculated based on two dimensions, measured using calipers, and was expressed in mm3 according to the formula: V=0.5a×b^2, where a and b are the long and the short diameters of the tumor, respectively. Data collected from each experimental group were expressed as mean±SE. Mice were randomized into nine groups of 9 mice each and dosed. Group 1 received a single intravenous (IV) injection of histidine buffer on Day 0 plus IV injections of 0.9% sodium chloride (saline) twice weekly for two weeks on Days 0, 3, 7, and 10 as a vehicle control. […] Group 3 received IV injections of 1 mg/kg Velcade® twice weekly for two weeks on Days 0, 3, 7, and 10. Group 4-5 received a single IV injection of 4 or 10 mg/kg thio hu anti-FcRH5(10A8)-HC-MC-vc-PAB-MMAE, CNJ 1465, respectively, on Day 0. […] Tumors were measured twice a week throughout the experiment. Body weights of mice were measured twice a week for the first three weeks. […] All animal protocols were approved by an Institutional Animal Care and Use Committee (IACUC).

[4] = test system: cynomolgus FcRH5; test: Cyno cross-reactivity by FACS on stably transfected cells (SVT2 cells expressing cynoFcRH5); format: binding, cynomolgus monkey; parameters: key to Cyno X-reactivity (FACS) on stable transfected cells: X*: *Very slight at saturating concentration
Experimental: For additional FACS analysis of FcRH5 antibodies, 1.0 μg, 0.1 μg or 0.01 μg of antibody was titrated per million cells of BJAB cells stably expressing huFcRH5 and SVT2 cells stably expressing cynoFcRH5. Briefly, approximately 10^6 cells in 100 μl were incubated with varying amounts (1.0 ug, 01. ug or 0.01 ug) of murine Ab mu1H4, mu6H1, mu7D11, mu9E2, mu10A8, mu10F5, or mu13G9 per million cells of BJAB cells stably expressing huFcRH5 and SVT2 cells stably expressing cynoFcRH5. Incubation with 1.0 ug/10^6 cells of the appropriate Mu IgG isotype control was used as a negative control. PE conjugated Rat anti-MuIgG1 or Rat anti-MuIgG2a+b was used as the secondary detection antibody.

[5] = test system: BJAB-FcRH5 tumors; test: In vivo tumor cell killing assay, BJAB-FcRH5 xenografts (Example 4); parameters: species or system CB17 ICR SCID mice; details: unconjugated antibody, 10.8 mg/kg i.v. day 0 and day 7, 8 mice
Experimental: To test the efficacy of various anti-FcRH5 antibodies, murine anti-human antibodies were conjugated to DM1 and the effect of the conjugated variant on tumors in mice were analyzed.
Specifically, the ability of the antibodies to regress tumors in BJAB-luciferase cells (Burkitt's lymphoma cell line stably transfected with human FcRH5.
After transfection of pRK.CMV.PD.nbe.FcRH5 into BJAB-luciferase cells and puromycin (Calbiochem, San Diego, Calif.) selection, surviving cells were FACS autocloned for mid range expressers with anti-FcRH5 antibodies (7D11). Post autoclone, the BJAB-luciferase cell line expressing FcRH5 most closely resembling plasma cell expression, as determined by FACS, was chosen by FACS analysis using anti-FcRH5 antibodies (7D11). As a negative control, BJAB-luciferase transfected, in the same manner, with the empty vector pRK.CMV.PD.nbe were used.
For analysis of efficacy mouse antibodies, female CB17 ICR SCID mice (6-8 weeks of age from Charles Rivers Laboratories; Hollister, Calif.) were inoculated subcutaneously with 2×10^7 BJAB-FcRH5 cells via injection into the flanks of CB17 ICR SCID mice and the xenograft tumors were allowed to grow to an average of 128 mm^3. Day 0 refers to the day the tumors were an average of 100-250 mm^3 and when the first/or only dose of treatment was administered, unless indicated specifically below. Tumor volume was calculated based on two dimensions, measured using calipers, and was expressed in mm^3 according to the formula: V=0.5a×b^2, where a and b are the long and the short diameters of the tumor, respectively. Data collected from each experimental group were expressed as mean±SE. Groups of 8 mice were treated with a weekly intravenous (i.v.) dose of 400 μg of antibody-linked drug/m^2 mouse (corresponding to ˜8-10 mg ADC/kg of mouse) with anti-FcRH5 ADC or control antibody-drug conjugates at day 0 and day 7. Tumors were measured twice a week throughout the experiment. Body weights of mice were measured either once a week throughout the experiment. […]

[6] = 37 day time course, ADC 4 mg/kg single IV day 0, Velcade 1 mg/kg IV days 0, 3, 7, 10
[7] = Velcade 1 mg/kg twice weekly for two weeks (Days 0, 3, 7, 10), OPM2-FcRH5 xenograft, CB17 ICR SCID mice

Sequence of cynomolgus FcRH5 (as listed by the source): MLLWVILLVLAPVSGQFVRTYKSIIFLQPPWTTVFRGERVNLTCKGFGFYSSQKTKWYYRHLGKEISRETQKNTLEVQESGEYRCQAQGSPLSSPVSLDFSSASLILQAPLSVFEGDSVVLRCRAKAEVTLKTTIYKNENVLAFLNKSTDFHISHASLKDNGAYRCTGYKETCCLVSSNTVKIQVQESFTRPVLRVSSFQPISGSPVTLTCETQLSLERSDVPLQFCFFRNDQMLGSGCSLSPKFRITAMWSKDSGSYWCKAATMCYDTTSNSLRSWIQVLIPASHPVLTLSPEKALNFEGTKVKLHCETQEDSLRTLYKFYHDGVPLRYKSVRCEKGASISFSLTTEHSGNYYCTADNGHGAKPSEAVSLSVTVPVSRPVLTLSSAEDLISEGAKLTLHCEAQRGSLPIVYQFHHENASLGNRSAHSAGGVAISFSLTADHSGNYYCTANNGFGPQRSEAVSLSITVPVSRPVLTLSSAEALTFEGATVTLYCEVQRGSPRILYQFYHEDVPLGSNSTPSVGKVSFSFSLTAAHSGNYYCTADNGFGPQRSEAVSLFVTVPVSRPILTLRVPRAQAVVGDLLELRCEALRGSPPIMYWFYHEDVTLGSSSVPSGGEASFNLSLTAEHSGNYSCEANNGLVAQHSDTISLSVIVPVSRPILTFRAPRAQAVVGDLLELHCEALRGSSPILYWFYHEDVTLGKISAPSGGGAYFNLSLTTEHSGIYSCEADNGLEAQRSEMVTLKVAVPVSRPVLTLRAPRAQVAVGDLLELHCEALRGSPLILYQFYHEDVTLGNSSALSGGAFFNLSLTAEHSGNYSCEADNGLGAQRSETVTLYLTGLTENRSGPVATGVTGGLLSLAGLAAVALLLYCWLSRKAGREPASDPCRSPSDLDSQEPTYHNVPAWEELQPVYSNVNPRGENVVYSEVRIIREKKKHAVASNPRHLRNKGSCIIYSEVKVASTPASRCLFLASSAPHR

`C[C@@H]1C[C@H]2[C@@H]3CCC4=CC(=O)C=C[C@]4(C)[C@@]3(F)[C@@H](O)C[C@]2(C)[C@@]1(O)C(=O)CO` [Dexamethasone] was tested. Which “CR (mice with Complete Remission: tumor volume dropped to 0 mm^3)” value [1] did it give?
The value was 0.

What about the “PR (mice with Partial Regression: tumor volume dropped below 50% of day 0)” value [1] of the same molecule?
The value was 0.

What about the “TI (number of observable tumors at end of study)” value [1] of the same molecule?
Its value is 5/5.

What about the “percent body weight change (FIG. 44)” value [1] of the same molecule?
Its value is “caused a significant decrease in body weight or weight loss”.

With `Nc1cccc2c1CN(C1CCC(=O)NC1=O)C2=O` (stereo not drawn) [Revlimid, lenalidomide] as the molecule, how does the “CR (mice with Complete Remission: tumor volume dropped to 0 mm^3)” value [1] read?
The value was 0.

What about the “PR (mice with Partial Regression: tumor volume dropped below 50% of day 0)” value [1] of the same molecule?
The value was 0.

And the “TI (number of observable tumors at end of study)” value [1]?
The value was 4/4.

And the “percent body weight change (FIG. 44)” value [1]?
Its value is “caused a significant decrease in body weight or weight loss”.

Which “CR (mice with Complete Remission: tumor volume dropped to 0 mm^3)” value [2, 6] does the source give for `CC(C)C[C@H](NC(=O)[C@H](Cc1ccccc1)NC(=O)c1cnccn1)B(O)O` [Velcade ®] here?
The value was 0.

And the “PR (mice with Partial Regression: tumor volume dropped below 50% of day 0)” value [2, 6]?
Its value is 0.

And the “TI (number of observable tumors at end of study)” value [2, 6]?
The value was 8/8.

What about the “CR (Complete Remission; number of mice with tumor volume dropped to 0 mm^3)” value [3, 7] of the same molecule?
The value was 0.

And the “PR (Partial Regression; number of mice with tumor volume below 50% of day 0 volume)” value [3, 7]?
The value was 0.

What about the “TI (number of observable tumors at end of study)” value [3, 7] of the same molecule?
Its value is 9/9.

`CC(C)C[C@H](NC(=O)[C@H](Cc1ccccc1)NC(=O)c1cnccn1)B(O)O` [Velcade®, bortezomib] was tested. Which “percent body weight change (FIG. 42)” value ([2]; first 21 days) did it give?
The value was “did not cause a significant decrease in body weight or weight loss”.

What about the “percent body weight change” value ([3]; first 24 days, 1 mg/kg IV twice weekly for two weeks) of the same molecule?
Its value is “caused a decrease in body weight or weight loss through the duration of treatment, but weight rebounded after dosing was complete”.

B1: 7D11: murine monoclonal antibody binding human FcRH5 (antibody, V domains shown)
VH: EVQLVESGGGLVQPGGSLKLSCAASGFTFSSYGMSWVRQTPDKRLELVATITRNGGTTYYLDSVKGRFTISRDNAKNTLYLQMSSLKSEDTAMYYCARGPIYYDYGYAMDYWGQGTTVTVSS
VL: DILLTQSPAILSVSPGERVSFSCRSSQSIGTNIHWYQQRTNGSPRLLIKFASESLSGIPSRFSGSGSGTDFTLSINSVESEDFADYYCQQSNSWPLTFGAGTKVEIK
What does the source list for B1?
Cyno X-reactivity (FACS) on stable transfected cells [4]: X*; cross reaction with cynomolgus FcRH5 by FACS analysis ([4]; 1.0, 0.1 or 0.01 μg antibody per million SVT2 cells stably expressing cynoFcRH5): cross react with cynomolgus FcRH5; CR (Complete Remission, number of mice) [5]: 0; PR (Partial Regression, number of mice) [5]: 0; TI (number of observable tumors at end of study) [5]: 8/8
